Laboratory results reported in patent US20080312184A1 (priority 2005, published 2008).

Columns and labels:
[1] = tested on: powdery mildew pathogen (EBI resistant strain); assay: Control Test on Powdery Mildew of Cucumbers (EBI Resistant Strain); format: in vivo, cucumbers (cultivar: sagami-hanjiro); details: single active ingredient
[2] = tested on: gray mold fungus (MBC resistant, dicarboximide-based chemical sensitive: RS strain); assay: Control Test on Gray Mold of Tomato at its Flowering Stage (RS Strain); format: in vivo, tomatoes (cultivar: House-Momotaro); details: Table 4, single active ingredient, sprayed twice, examined after 7 days
[3] = Table 1, treated concentration 10 ppm, examined after 14 days

CC(C)CC(C)c1sccc1NC(=O)c1cn(C)nc1C(F)(F)F (racemic) [P (penthiopyrad), (RS)—N-[2-(1,3-dimethylbutyl)thiophen-3-yl]-1-methyl-3-tri fluoromethyl-1H-pyrazole-4-carboxamide]
Control Value [1, 3]: 68
Control Value ([1]; Table 7 (Example B), treated concentration 10 ppm): 68
Control Value ([2]; treated concentration 10 ppm): 56

Clc1nc(Cl)nc(Nc2ccccc2Cl)n1 [Anilazine, anilazine]
Control Value ([2]; treated concentration 50 ppm): 40

O=C(Nc1ccccc1-c1ccc(Cl)cc1)c1cccnc1Cl [Boscalid, boscalid]
Control Value ([2]; treated concentration 20 ppm): 48

CCCCc1c(C)nc(NCC)nc1OS(=O)(=O)N(C)C [Bupirimate, bupirimate]
Control Value ([1]; Table 1, treated concentration 20 ppm, examined after 14 days): 45

CCOC(=O)C1(C)OC(=O)N(c2cc(Cl)cc(Cl)c2)C1=O (stereo not drawn) [Chlozolinate, chlozolinate]
Control Value ([2]; treated concentration 40 ppm): 42

O=C(Cc1ccccc1)N/C(=N\OCC1CC1)c1c(C(F)(F)F)ccc(F)c1F [Cyflufenamid, cyflufenamid]
Control Value ([1]; Table 1, treated concentration 5 ppm, examined after 14 days): 66

CNC(=O)/C(=N/OC)c1ccccc1COc1cc(C)ccc1C [Dimoxystrobin, dimoxystrobin]
Control Value ([1]; Table 7 (Example B), treated concentration 15 ppm): 60

CC1(C(=O)Nc2ccc(O)c(Cl)c2Cl)CCCCC1 [Fenhexamid, fenhexamid]
Control Value ([2]; treated concentration 20 ppm): 55

FC(F)C(F)(F)OCC(Cn1cncn1)c1ccc(Cl)cc1Cl (stereo not drawn) [Tetraconazole, tetraconazole]
Control Value [1, 3]: 34

CC(C)(C)C(=O)C(Oc1ccc(Cl)cc1)n1cncn1 (stereo not drawn) [Triadimefon, triadimefon]
Control Value [1, 3]: 29
